# According to publication PMC8403366, “Functional significance of gain-of-function H19 lncRNA in skeletal muscle differentiation and anti-obesity effects” (Genome Medicine, 2021):
# What was measured:
# Type in all cases: in vivo, mouse
# [1] = test system: C57BL/6 J mice; assay: Tissue distribution / pharmacokinetics of biotinylated mimics; settings: 10 mg/kg i.p.; streptavidin immunohistochemistry, 24 hours post administration; n = 5
# Experimental: The H19-Rgof mimics and AGR-H19-Rgof mimics were synthesized by Bio-synthesis Inc. The linker that connected the peptide and RNA oligonucleotides was succinimidyl 4-(N-maleimidomethyl) cyclohexane-1-carboxylate (SMCC). RNA mimics sequences are listed in the Additional file 1: Table S1. To characterize the pharmacokinetics of H19-Rgof and AGR-H19-Rgof mimics, the biotinylated H19-Rgof and AGR-H19-Rgof mimics (10 mg/kg) were intraperitoneally injected into C57BL/6 J mice. The liver, kidneys, lungs, heart, and skeletal muscles of the animals were collected 3, 12, 24, 48, or 72 h post-injection (n = 5 animal per time point). Tissues were subjected to immunohistochemistry using streptavidin alkaline phosphatase conjugates and small RNA isolation in accordance with the manufacturer’s instructions using miRCURY™ RNA Isolation Kits (Qiagen). Immunostained tissue slides were obtained with a Vectra Polaris Multispectral Imaging scanner (PerkinElmer). The quantification of immunohistochemistry staining density was performed by Image-pro plus 6.0 (Media Cybernetics) and calculated based on the average staining intensity and the percentage of positively stained cells. Pharmacokinetic parameters were determined by nonlinear regression analysis.
# [2] = test system: C57BL/6 J mice; assay: Oxymax/CLAMS metabolic cage study; settings: n = 4
# Experimental: (§1) Whole-body composition parameters were measured in male and female mice fed with either chow or HFD by Faxitron Specimen Radiography System (Faxitron X-Ray Corp.) to precisely measure total body fat and lean mass. Mice were housed in the Oxymax/CLAMS metabolic cage system (Columbus Instruments) for 4 days with ad libitum access to food and water. Volume of oxygen uptake (VO2) and exhaled carbon dioxide (VCO2), respiratory exchange ratio (RER), and activity were measured using the Oxymax system. RER is determined by dividing VCO2 produced by VO2 consumed.
# [3] = test system: C57BL/6 J mice on a HFD; assay: HFD-induced obesity model: body, muscle and fat weights, body composition; settings: HFD-fed male mice; for body weight: n = 10
# Experimental: (§2) To determine the effects of H19-Rgof with a skeletal muscle enrichment peptide agrin (AGR-H19-Rgof) on WT C57BL/6 J or Lep^Ob/Ob mice, AGR-tagged oligonucleotides were used. The synthesis and sequence information of AGR-tagged RNA oligonucleotides are described in “Synthesis of H19-Rgof mimics, AGR-H19-Rgof mimics, and Pharmacokinetics (PK) studies.” AGR-Scr (conjugated to scramble oligonucleotides), H19-Rgof, or AGR-H19-Rgof mimics were injected at a dose of 1 mg/kg intraperitoneally into 3-week-old male and female mice. For AGR-H19-Rgof treatment in HFD (Cat # D12492, Research Diets, Inc.)-fed mice, male C57BL/6 J mice were fed with a HFD starting at 6 weeks of age. The AGR-H19-Rgof and AGR-Scr mimics were injected at a dose of 0.5 or 1 mg/kg intraperitoneally every other day starting 2 weeks after the initiation of HFD feeding. Body weight was measured weekly. The general health condition, grooming, and behavior of all animals were monitored daily, and injection sites were checked for signs of redness or edema.
# (§3) Unless otherwise indicated, mice were fasted for 4–6 h, anesthetized with isoflurane, and sacrificed by heart puncture. Tissues were dissected, weighed, and either dipped in liquid nitrogen or fixed for immunohistochemistry analysis. Individual muscle was dissected on one side of the body and weighed. Adipose tissues including white adipose tissue (WAT), visceral adipose tissue (VAT), and brown adipose tissue (BAT) were collected and weighed.
# as §1
# [4] = test system: Lep^Ob/Ob mice; assay: Leptin deficiency-induced obesity model
# Experimental: The mice used in this study were purchased from Jackson Lab as follows: Lep^Ob/Ob (stock 000632), C57BL/6 J (stock 000664). All animals were from a C57BL/6 J background and housed with a 12 h light/12 h dark cycle in the animal facility with free access to water and food. 4 to 10 mice were used in each group. Exact numbers for each experiment are included in the figure legends.
# as §2
# as §3, with “Adipose tissues including white adipose tissue (WAT), visceral adipose tissue (VAT), and brown adipose tissue (BAT) were collected and weighed.” left out
# H&E staining was performed in paraffin-embedded livers to visualize the pattern of lipid accumulation and inflammatory status. […] Adipocyte size (from WAT) was determined with ImageJ software. Sections from five animals per group were used and at least 500 adipocytes per animal were measured from multiple fields.
substance,measurement,setting,value
N-terminal-ELTNEIPAELTNEIPA-Linker-5'-[2’-F-C][2’-F-U][2’-F-C][2’-F-U][2’-F-U][2’-F-U][2’-F-A][2’-F-U][2’-F-U][2’-F-U][2’-F-C][2’-F-U][2’-F-G][2’-F-A][2’-F-G][2’-F-C][2’-F-U][2’-F-U][2’-F-U][2’-F-C][2’-F-C][2’-F-U][2’-F-A][2’-F-U][2’-F-C][2’-F-U][2’-F-U][2’-F-U][2’-F-C][2’-F-C]-3' [AGR-H19-Rgof],"accumulation in liver, kidneys and lungs",[1],minimal accumulation
same,biotin-labeled mimic detected in skeletal muscle,[1],substantial proportion
same,skeletal muscle distribution compared to unlabeled H19-Rgof,[1],significantly enhanced
same,overall food intake,"[2]; HFD-fed male mice, vs AGR-Scr",similar
same,energy expenditure,"[2]; HFD-fed mice, CLAMS",elevated
same,total activity,"[2]; HFD-fed mice, CLAMS, vs AGR-Scr",similar
same,activity per day/night,"[2]; WT male mice on chow, CLAMS, vs control",not significantly altered
same,total food intake,"[2]; WT male mice on chow, vs control",not significantly altered
same,respiratory exchange ratio (RER),"[2]; WT mice on chow, CLAMS, vs AGR-Scr",elevated
same,body weight,[3]; 0.5 mg/kg i.p. every other day,significantly reduced
same,body weight,[3]; 1 mg/kg i.p. every other day,significantly reduced
same,fat percentage (body composition),"[3]; vs AGR-Scr, n = 5",reduced
same,fat weight (body composition),"[3]; vs AGR-Scr, n = 5",reduced
same,lean weight (body composition),"[3]; vs AGR-Scr, n = 5",increased
same,fat mass,"[3]; vs AGR-Scr, n = 10, 9",reduced
same,skeletal muscle mass,"[3]; vs AGR-Scr, n = 10, 9",increased
same,fatty acid deposition in livers,"[4]; Lep^ob/ob mice, Oil Red O, n = 8, 8",significantly improved
same,muscle mass,"[4]; Lep^ob/ob mice, vs AGR-Scr, n = 10, 9",increased
same,body weight,"[4]; male Lep^ob/ob mice, 8 weeks post-treatment, vs AGR-Scr, n = 10, 9",reduced
